Patent US20240025903A1, “Bicyclic Compounds and Uses Thereof for the Treatment of Diseases” (Athira Pharma, Inc., priority 2020, published 2024)

Key:
[1] = Turbidimetric solubility assay; assay type: physicochemical; details: PBS, 37° C., absorbance 620 nm; for solubility at 2 h: aqueous buffer, kinetic from dmso stock
Protocol: Aqueous solubility is a critical drug property that helps to predict bioavailability. Generally, compounds with aqueous solubility <100 μg/ml are poor drugs.
To assess a compound's solubility by turbidity, test compounds were first dissolved in organic solvent (DMSO) at a concentration of 10 mM. This compound solution was then diluted in aqueous solvent (PBS) in a dilution series from […] in a 96-well assay plate. Solutions were incubated at 37° C. for 2 hours.
In wells with test compounds over their solubility limit, the compound will precipitate, effectively blocking the passage of light and thus increasing the absorbance signal of UV light at a wavelength of 620 nm. Compounds were considered insoluble at a tested concentration if turbidity raises the absorbance more than 10% above control reads.

[2] = Parallel artificial membrane permeability assay (PAMPA); assay type: in vitro ADME; details: PBS, room temperature
Protocol: Bioavailable drugs must permeate the cellular membranes of the lining of the digestive tract. To estimate the penetrability of exemplary compounds, the in vitro parallel artificial membrane permeability assay (PAMPA) was utilized.
Test compounds must have a standard curve in the final read plate to determine partitioned concentration of each drug. A 6-point standard curve was prepared for each compound from 0 to 200 μM in phosphate-buffered saline (PBS).
Test compound solution (300 μL in PBS) was added to the donor (bottom) well of the PAMPA plate in 5 replicates and PBS vehicle (200 μL) was added to the acceptor (top) wells of appropriate wells to match the loading of the donor plate. The bottom and top of the PAMPA plates were then sandwiched together. The PAMPA plates were then incubated at room temperature for 5 hours. After incubation, 150 μL of donor solution was added to a UV compatible plate containing the corresponding standard curve. 150 μL of acceptor well solution was added adjacent to the corresponding standard curve and donor well samples for that compound. The plate was then read using a UV plate reader.
Permeability and membrane retention were then calculated based on the following formulas:
Permeability (cm/s): (Pe)(cm/s)={−ln [1−CA(t)/Ceq]}/[A*(1/VD+1/VA)*t] (equation 1) • where: • A=filter area (0.3 cm^2); • VD=donor well volume (0.3 mL); • VA=acceptor well volume (0.2 mL); • t=incubation time (seconds); • CA(t)=compound concentration in acceptor well at time t; • CD(t)=compound concentration in donor well at time t; and • Ceq=[CD(t)*VD+CA(t)*VA]/(VD+VA).
Membrane Retention (R)=1−[CD(t)*VD+CA(t)*VA]/(C0*VD) (equation 2) • where: • CD(t), VD, CA(t), and VA are as defined for equation 1, and • C0=initial concentration in donor well (200 uM).

HepG2 cells = assay: Cytotoxicity assay (LDH release); assay type: cell-based; details: 48 hours, 0.1 to 100 μM
Protocol: This experiment was designed to obtain a preliminary assessment of cytotoxicity.
HepG2 cells were plated in 96-well cell culture plates and allowed to attach overnight at 37° C., 5% CO2 in EMEM+10% FBS. Treatments were made in complete media (EMEM+10% FBS) and included a dilution series of test compounds from 0.1 to 100 μM. Known cytotoxin cerivastatin was used as a positive assay control and prepared at a final concentration of 0.5 μM.
Growth media was replaced with treatment media (EMEM+10% FBS containing test compound dissolved in DMSO) and cells were incubated with test compounds for 48 hours. At the end of the incubation period, supernatant media from each well was transferred to a new plate and LDH assay working solution was added. LDH assay solution undergoes a colorimetric reaction in proportion to the amount of lactate dehydrogenase (an intracellular protein that was only found in the media in the presence of lysed cells) in the media. Color reaction was quantified by measurement of absorbance at a wavelength of 490 nm.
The signal range of the assay was determined by no manipulation in a negative control treatment and full lysis of all cells in a lysis control sample. Compounds that increase the level of cytotoxicity more than 20% above negative control samples were considered cytotoxic in this assay.

[3] = In vitro stability in human plasma; assay type: in vitro ADME; details: 5 μM, 37° C.
Protocol: (§1) Bioavailability can be estimated by compound stability when exposed to conditions in the body. As an initial assessment of stability properties in a variety of conditions present in animals, exemplary compounds were tested for stability in a battery of simulated body compartments. Compounds were tested for stability in the following solutions: simulated gastric fluid (SGF: 34.2 mM NaCl, pH 1.2), simulated gastric fluid with the digestive enzyme pepsin (SGF+Enzyme: SGF with 3.2 mg/ml pepsin), simulated intestinal fluid with the mixture of enzymes in porcine pancreatin (SIF+Enzyme: 28.7 mM NaH2PO4, 105.7 mM NaCl, pH 6.8, 10 mg/ml pancreatin), rat plasma, and human plasma.
(§2) Test compounds were incubated at a final concentration of 5 μM in the above solutions at 37° C. with samples removed at the following time points: 0, 1, 2, and 4 hours. Reactions were stopped and prepared for quantification by addition of excess quench solution containing an internal standard (acetonitrile, 200 ng/mL bucetin). Test compound and internal standard in each sample was quantified by LC-MS/MS, and after internal normalization to bucetin, test compound concentration was expressed as a percentage of concentration at the 0-hour time point. Stability in the relevant test solution was then determined by the percent remaining at the 4-hour time point.

[4] = In vitro stability in rat plasma; assay type: in vitro ADME; details: 5 μM, 37° C.
Protocol: as §1, §2

SMILES | solubility at 2 h [1] | Papp at 5 h, 200 µM [2] | Cytotoxicity (HepG2 cells) | Human Plasma (compound remaining after 4 hours) [3] | Rat Plasma (compound remaining after 4 hours) [4] | Solubility ([1]; 2 hours) | Permeability ([2]; 5 hours)
CCC(C)CN1CC2N(Cc3ccc(O)nc3)CCC(=O)N2[C@@H](C)C1=O (stereo partly drawn) [Compound 7a] | > 300 µM | > 10 ×10⁻⁶ cm/s | ++++ (++++ indicates non-toxic at 100 μM) |  |  |  | 
CCC(C)CN1CC2N(Cc3ccc(OC(F)F)cc3)CCC(=O)N2[C@@H](C)C1=O (stereo partly drawn) [Compound 6a] | > 300 µM | < 2 ×10⁻⁶ cm/s | ++++ (++++ indicates non-toxic at 100 μM) | ++ (++ indicates 40-79% compound remaining after 4 hours) | +++ (+++ indicates 80-99% compound remaining after 4 hours) |  | 
CCC(C)CN1CC2N(C(=O)c3ccc(C(F)(F)F)cc3)CCC(=O)N2[C@@H](C)C1=O (stereo partly drawn) [Compound 1a] | > 300 µM | > 2 ×10⁻⁶ cm/s | ++++ (++++ indicates non-toxic at 100 μM) | ++ (++ indicates 40-79% compound remaining after 4 hours) | ++ (++ indicates 40-79% compound remaining after 4 hours) |  | 
CCC(C)CN1CC2N(Cc3ccc(C(F)(F)F)cc3)CCC(=O)N2[C@@H](C)C1=O (stereo partly drawn) [Compound 5a] | > 300 µM | < 2 ×10⁻⁶ cm/s | ++++ (++++ indicates non-toxic at 100 μM) | ++ (++ indicates 40-79% compound remaining after 4 hours) | ++ (++ indicates 40-79% compound remaining after 4 hours) |  | 
CCC(C)CN1CC2N(C(=O)c3ccc(O)cc3)CCC(=O)N2[C@@H](C)C1=O (stereo partly drawn) [Compound 8a] |  |  | ++++ (++++ indicates non-toxic at 100 μM) | ++ (++ indicates 40-79% compound remaining after 4 hours) | ++++ (++++ indicates 100% compound remaining after 4 hours) | ++++ (++++ indicates solubility at 300 μM) | + (+ indicates permeability above 1 × 10^−5 cm/s)
CCC(C)CN1CC2N(C(=O)c3ccc(OC(F)F)cc3)CCC(=O)N2[C@@H](C)C1=O (stereo partly drawn) [Compound 2a] | > 300 µM | < 2 ×10⁻⁶ cm/s | ++++ (++++ indicates non-toxic at 100 μM) | ++ (++ indicates 40-79% compound remaining after 4 hours) | ++ (++ indicates 40-79% compound remaining after 4 hours) |  | 

Second part, led by results:

solubility at 2 h [1] | Papp at 5 h, 200 µM [2] | SMILES | Cytotoxicity (HepG2 cells) | Human Plasma (compound remaining after 4 hours) [3] | Rat Plasma (compound remaining after 4 hours) [4] | Solubility ([1]; 2 hours) | Permeability ([2]; 5 hours)
> 300 µM | > 2 ×10⁻⁶ cm/s | CCCCN1CC2N(C(=O)c3ccc(OC(F)F)cc3)CCC(=O)N2C(C)C1=O (stereo not drawn) [Compound 17] | ++++ (++++ indicates non-toxic at 100 μM) | +++ (+++ indicates 80-99% compound remaining after 4 hours) | ++ (++ indicates 40-79% compound remaining after 4 hours) |  | 
> 300 µM | < 2 ×10⁻⁶ cm/s | CC1C(=O)N(CCC2CCC2)CC2N(C(=O)c3ccc(C(F)(F)F)cc3)CCC(=O)N12 (stereo not drawn) [Compound 20] | ++++ (++++ indicates non-toxic at 100 μM) | +++ (+++ indicates 80-99% compound remaining after 4 hours) | ++ (++ indicates 40-79% compound remaining after 4 hours) |  | 
> 300 µM | > 2 ×10⁻⁶ cm/s | CCC(C)CN1CC2N(C(=O)c3ccc(F)cc3)CCC(=O)N2C(C)C1=O (stereo not drawn) [Compound 11, 1-(4-fluorobenzoyl)-6-methyl-8-(2-methylbutyl)hexahydro-4H-pyrazino[1,2-a]pyrimidine-4,7(6H)-dione] | ++++ (++++ indicates non-toxic at 100 μM) | +++ (+++ indicates 80-99% compound remaining after 4 hours) | ++++ (++++ indicates 100% compound remaining after 4 hours) |  | 
> 300 µM | < 2 ×10⁻⁶ cm/s | CCC(C)CN1CC2N(C(=O)c3ccc(C(F)(F)F)c(Cl)c3)CCC(=O)N2C(C)C1=O (stereo not drawn) [Compound 12, 1-(3-chloro-4-(trifluoromethyl)benzoyl)-6-methyl-8-(2-methylbutyl)hexahydro-4H-pyrazino[1,2-a]pyrimidine-4,7(6H)-dione] | ++++ (++++ indicates non-toxic at 100 μM) | +++ (+++ indicates 80-99% compound remaining after 4 hours) | ++++ (++++ indicates 100% compound remaining after 4 hours) |  | 
> 300 µM | < 2 ×10⁻⁶ cm/s | C=CCCN1CC2N(C(=O)c3ccc(C(F)(F)F)cc3)CCC(=O)N2C(C)C1=O (stereo not drawn) [Compound 22] | ++++ (++++ indicates non-toxic at 100 μM) | +++ (+++ indicates 80-99% compound remaining after 4 hours) | +++ (+++ indicates 80-99% compound remaining after 4 hours) |  | 
> 300 µM | > 2 ×10⁻⁶ cm/s | CC1C(=O)N(CC2CCC2)CC2N(C(=O)c3ccc(OC(F)F)cc3)CCC(=O)N12 (stereo not drawn) [Compound 14] | ++++ (++++ indicates non-toxic at 100 μM) | +++ (+++ indicates 80-99% compound remaining after 4 hours) | +++ (+++ indicates 80-99% compound remaining after 4 hours) |  | 
> 300 µM | < 2 ×10⁻⁶ cm/s | CC1C(=O)N(CCC2CCCC2)CC2N(C(=O)c3ccc(C(F)(F)F)cc3)CCC(=O)N12 (stereo not drawn) [Compound 19] | ++++ (++++ indicates non-toxic at 100 μM) | +++ (+++ indicates 80-99% compound remaining after 4 hours) | +++ (+++ indicates 80-99% compound remaining after 4 hours) |  | 
